Laboratory results published in US12312334B2, “Quinoxaline compounds and uses thereof” (BOARD OF REGENTS OF THE UNIVERSITY OF NEBRASKA, priority 2017, dated 2025).
Where two headings read alike, the source gives them in different places. Values belong to the molecule of their own block, whether it stands above or below them.

Tests used:
[1] = system: TNFα induced NFκB transcription activity; assay: cell-based TNFα induced IKKβ mediated NFκB activation luciferase reporter assay; parameters: TNFα induced NFκB transcription activity % Inhibition: concentration or dose not given beside the values
From the text: Compound 13-197 has a structure:

[2] = system: DLD1; assay: growth inhibition assay, colon cancer cell line DLD1; format: cell-based; conditions: Homo sapiens, DLD-1
[3] = system: HCT116; assay: growth inhibition assay, colon cancer cell line HCT116; format: cell-based; conditions: Homo sapiens, HCT-116
[4] = system: HT29; assay: growth inhibition assay, colon cancer cell line HT29; format: cell-based; conditions: Homo sapiens, HT-29
[5] = system: Suit2; assay: growth inhibition assay, pancreatic cancer cell line Suit2; format: cell-based; conditions: SUIT-2
[6] = system: S2013; assay: growth inhibition assay, pancreatic cancer cell line S2013; format: cell-based
[7] = system: MiaPaCa2; assay: growth inhibition assay, pancreatic cancer cell line MiaPaCa2; format: cell-based; conditions: Homo sapiens, MIA PaCa-2
[8] = system: SW620; assay: growth inhibition assay, colon cancer cell line SW620; format: cell-based; conditions: Homo sapiens, SW-620
[9] = system: AsPC1; assay: growth inhibition assay, pancreatic cancer cell line AsPC1; format: cell-based; conditions: Homo sapiens
[10] = oral and intravenous dose pharmacokinetics in mice; format: in vivo, Balb/c mice; conditions: for MRT inf: read-out: MRT 0-∞
Experimental: (§1) A metabolic stability profile, as well as oral and intravenous dose pharmacokinetics in mice was characterized. The in-vitro metabolic stability of 39-100 was determined using human liver S9 fraction (XenoTech, LLC, USA). 7-hydroxycoumarin (glucuronidation and sulphation) and testosterone (CYP hydroxylation) were used as positive controls for in-vitro metabolic stability study. The oral and intravenous dose pharmacokinetic studies were performed in Balb/c mice. The oral dose of 39-100 was 10 mg/kg, and the intravenous dose was 1 mg/kg. Sample analysis was performed by liquid chromatography-tandem mass spectrometry (SCIEX QTRAP 4000 LC-MS/MS System). For metabolite identification, samples were acquired by MRM-information dependent acquisition-enhanced product ion (MRM-IDA-EPI) scans, enhanced mass spectrometry-IDA-EPI scans, neutral loss, and precursor ion scan methods. Metabolites of 39-100 were characterized by Analyst 1.6.2, LightSight 2.3.1, and ChemDraw Professional-15 software.

[11] = in-vitro metabolic stability in human liver S9 fraction; format: in vitro ADME; conditions: for microsomal CLint / half-life: human liver S-9 fraction; for microsomal CLint: read-out: intrinsic clearance
Experimental: as §1

[12] = system: HCT116 cancer cells; assay: HCT116 colon tumor xenograft growth inhibition study; format: in vivo; conditions: HCT116 xenograft in athymic mice, 40 mg/kg for 2 weeks, preliminary results
Experimental: Colon tumor xenografts were established in immune deficient (athymic: 4-6 weeks old) mice. Briefly, exponentially growing (70-80% confluent) HCT116 cancer cells were trypsinized, counted using a hemocytometer and stained with trypan blue to ensure only healthy cells are counted. Cells in suspension were added to matrigel and 4×10^6 cells/100 μl of volume were injected into the flanks of mice. Post-injection, mice were monitored on a daily basis to determine tumor growth. The tumor onset and progression was examined through palpation. Tumor diameter was measured using digital calipers and the tumor volume (in mm^3) was calculated using the formula=(width)^2×length/2. Mice were randomly separated into two groups and were dosed with either vehicle or 40 mg/kg of 39-100 for 2 weeks.

[13] = Balb/c, mouse, plasma, Oral: 10 mg/kg

Structure (SMILES): Cn1cc(-c2cnc3ccc(NC(=O)Nc4ccc([N+](=O)[O-])cc4)cc3n2)cn1 [39-084]
TNFα induced NFκB transcription activity % Inhibition [1]: 36.4 ± 6.3%

GI50 [2]: 8.4 ± 2.3 µM
GI50 [3]: 3.8 ± 1.2 µM
GI50 [4]: 3.1 ± 0.2 µM
GI50 [5]: 4.5 ± 0.4 µM
GI50 [6]: 4.1 ± 0.5 µM
GI50 [7]: 3.2 ± 0.3 µM
GI50 [8]: 8.4 ± 2.3 µM
GI50 [9]: 7.2 ± 2.6 µM
MRT inf ([10]; Balb/c, mouse, plasma, IV: 1 mg/kg): 1.4 h
half-life ([10]; Balb/c, mouse, plasma, IV: 1 mg/kg, read-out: t0.5 (elimination half-life) (converted)): 234 min
AUC(0-t) [10, 13]: 12400 ng·h/mL
CL/F [10, 13]: 13.3 mL/min/kg
Cmax [10, 13]: 2330 ng/mL
Tmax [10, 13]: 2 h
bioavailability ([10]; Balb/c, mouse, plasma, Oral: 10 mg/kg vs IV: 1 mg/kg): 208%
MRT inf [10, 13]: 3.9 h
AUC(0-inf) ([10]; Balb/c, mouse, plasma, intravenous dose 1 mg/kg, read-out: area under the curve (AUC0-∞)): 598 ng·h/mL
MRT ([10]; Balb/c, mouse, plasma, intravenous dose 1 mg/kg, read-out: mean residence time (MRT)): 1.4 h
AUC(0-inf) ([10]; Balb/c, mouse, plasma, oral administration 10 mg/kg, read-out: AUC0-∞): 12400 ng·h/mL
MRT ([10]; Balb/c, mouse, plasma, oral administration 10 mg/kg, read-out: MRT): 3.9 h
C0-iv ([10]; IV: 1 mg/kg): 709.9 ng/mL
CL/F (clearance) ([10]; IV: 1 mg/kg): 1.67 L/h/kg
λZ ([10]; IV: 1 mg/kg): 0.177 h⁻¹
t0.5 ([10]; Oral: 10 mg/kg): 2.35 h
λZ ([10]; Oral: 10 mg/kg): 0.295 h⁻¹
parent compound present ([11]; human liver S9 fraction, 60-minute incubation): More than 85%
microsomal CLint ([11]; human liver S9 fraction): 1.59 µL/min/mg
half-life [11]: 436.4 min
Structure (SMILES): Cn1cc(-c2cnc3ccc(NC(=O)Nc4ccc(F)c(Br)c4)cc3n2)cn1 [39-100]
TNFα induced NFκB transcription activity % Inhibition [1]: 83.8 ± 1.6%
potency relative to 13-197 ([1]; all the assays tested (FIG. 1 and FIG. 2)): more potent than 13-197
metabolites detected ([11]; metabolite identification by LC-MS/MS, matrix not stated): In very small fraction glucuronidation, sulfonation, and demethylation
colon tumor growth [12]: reduced colon tumorgrowth

Structure (SMILES): Cn1cc(-c2cnc3ccc(NC(=O)Cc4ccc(Br)cc4)cc3n2)cn1 [39-076]
TNFα induced NFκB transcription activity % Inhibition [1]: 36.1 ± 8.8%

Structure (SMILES): Cn1ccc(-c2cnc3cc(NC(=O)Nc4ccc(Br)cc4)ccc3n2)n1 [39-072]
TNFα induced NFκB transcription activity % Inhibition [1]: 46.8 ± 4.4%

Structure (SMILES): Cc1nn(C)cc1-c1cnc2ccc(NC(=O)Nc3ccc(Br)cc3)cc2n1 [39-077]
TNFα induced NFκB transcription activity % Inhibition [1]: 37.7 ± 5.1%

Structure (SMILES): COc1cccc(NC(=O)Nc2ccc3ncc(-c4cnn(C)c4)nc3c2)c1 [42-076]
TNFα induced NFκB transcription activity % Inhibition [1]: 49.7 ± 2.6%

Structure (SMILES): COc1cc(NC(=O)Nc2ccc3ncc(-c4cnn(C)c4)nc3c2)ccc1F [42-078]
TNFα induced NFκB transcription activity % Inhibition [1]: 33.5 ± 3.7%

Structure (SMILES): Cn1cc(-c2cnc3ccc(NC(=O)Nc4ccc(F)c(Cl)c4)cc3n2)cn1 [42-065]
TNFα induced NFκB transcription activity % Inhibition [1]: 85.3 ± 2.8%

GI50 [2]: 10.9 ± 2.1 µM
GI50 [3]: 8.8 ± 2.2 µM
GI50 [4]: 6.7 ± 1 µM
GI50 [5]: 10.7 ± 0.5 µM
GI50 [6]: 9.1 ± 1.1 µM
GI50 [7]: 10 ± 2.2 µM
GI50 [8]: 9.2 ± 2.5 µM
GI50 [9]: 12 ± 4 µM
microsomal CLint ([11]; human liver S9 fraction): 12.2 µL/min/mg
half-life [11]: 57 min
Structure (SMILES): O=C(Nc1ccc(Br)cc1)Nc1ccc2nc(-c3ccco3)c(-c3ccco3)nc2c1 [13-197, reference compound]
TNFα induced NFκB transcription activity % Inhibition [1]: 32.9 ± 3.4%

Structure (SMILES): Cn1cc(-c2cnc3ccc(NC(=O)Nc4ccc5c(c4)OCO5)cc3n2)cn1 [42-072]
TNFα induced NFκB transcription activity % Inhibition [1]: inactive

Structure (SMILES): Cn1cc(-c2cnc3ccc(NC(=O)Nc4ccccc4Br)cc3n2)cn1 [39-102]
TNFα induced NFκB transcription activity % Inhibition [1]: 62.4 ± 1.2%

Structure (SMILES): Cn1cc(-c2cnc3ccc(NC(=O)Nc4ccc5sccc5c4)cc3n2)cn1 [42-077]
TNFα induced NFκB transcription activity % Inhibition [1]: inactive

Structure (SMILES): Cn1cc(-c2cnc3ccc(NC(=O)Nc4cccc(C(F)(F)F)c4)cc3n2)cn1 [42-071]
TNFα induced NFκB transcription activity % Inhibition [1]: 80.5 ± 2.5%

Structure (SMILES): Cc1cc(NC(=O)Nc2ccc3ncc(-c4cnn(C)c4)nc3c2)ccc1F [42-074]
TNFα induced NFκB transcription activity % Inhibition [1]: 10.4 ± 3.9%

Structure (SMILES): Cc1ccc(NC(=O)Nc2ccc3ncc(-c4cnn(C)c4)nc3c2)cc1 [39-085]
TNFα induced NFκB transcription activity % Inhibition [1]: 53.0 ± 2.9%

Structure (SMILES): Cn1cc(-c2cnc3ccc(NC(=O)Nc4ccccc4)cc3n2)cn1 [39-071]
TNFα induced NFκB transcription activity % Inhibition [1]: 31.2 ± 7.6%

Structure (SMILES): Cn1cc(-c2cnc3ccc(NC(=O)Nc4cccc(Cl)c4)cc3n2)cn1 [42-064]
TNFα induced NFκB transcription activity % Inhibition [1]: 96.3 ± 1.5%

Structure (SMILES): Cc1cccc(NC(=O)Nc2ccc3ncc(-c4cnn(C)c4)nc3c2)c1 [42-066]
TNFα induced NFκB transcription activity % Inhibition [1]: Inactive

Structure (SMILES): Cn1cc(-c2cnc3ccc(NC(=O)Nc4ccc5c(c4)CCC5)cc3n2)cn1 [42-091]
TNFα induced NFκB transcription activity % Inhibition [1]: inactive

Structure (SMILES): Cn1cc(-c2cnc3ccc(NC(=O)Nc4cccc(Br)c4)cc3n2)cn1 [39-086]
TNFα induced NFκB transcription activity % Inhibition [1]: 88.9 ± 1.8%

Structure (SMILES): Cn1ccc(-c2cnc3ccc(NC(=O)Nc4ccc(Br)cc4)cc3n2)n1 [39-062]
TNFα induced NFκB transcription activity % Inhibition [1]: 33.0 ± 5.7%

Structure (SMILES): Cn1cc(-c2cnc3cc(NC(=O)Nc4ccc(Br)cc4)ccc3n2)cn1 [39-061]
TNFα induced NFκB transcription activity % Inhibition [1]: 40.7 ± 2.9%

Structure (SMILES): Cn1cc(-c2cnc3ccc(NC(=O)Nc4ccc(F)c(OC(F)(F)F)c4)cc3n2)cn1 [42-096]
TNFα induced NFκB transcription activity % Inhibition [1]: 64.6 ± 3.3%

Structure (SMILES): Cn1cc(-c2cnc3ccc(NC(=O)Nc4ccc(F)c(C(F)(F)F)c4)cc3n2)cn1 [42-062]
TNFα induced NFκB transcription activity % Inhibition [1]: 83.7 ± 0.3%

Structure (SMILES): Cn1cc(-c2cnc3ccc(NC(=O)Nc4ccc5c(c4)OCCO5)cc3n2)cn1 [42-073]
TNFα induced NFκB transcription activity % Inhibition [1]: inactive

Structure (SMILES): O=C(Nc1ccc(Br)cc1)Nc1ccc2ncc(-c3cn[nH]c3)nc2c1 [39-09D]
TNFα induced NFκB transcription activity % Inhibition [1]: 48.4 ± 2.8%

Structure (SMILES): Cn1cc(-c2cnc3ccc(NC(=O)Nc4ccc(Br)cc4)cc3n2)cn1 [39-055]
TNFα induced NFκB transcription activity % Inhibition [1]: 71.0 ± 4.8%

Structure (SMILES): Cn1cc(-c2cnc3ccc(NC(=O)Nc4ccc(F)cc4)cc3n2)cn1 [39-066]
TNFα induced NFκB transcription activity % Inhibition [1]: 42.9 ± 9.8%

Structure (SMILES): Cn1cc(-c2cnc3ccc(NC(=O)Nc4ccc5c(c4)CCO5)cc3n2)cn1 [42-097]
TNFα induced NFκB transcription activity % Inhibition [1]: inactive

Structure (SMILES): Cn1cc(-c2cnc3ccc(NC(=O)Nc4cccc(OC(F)(F)F)c4)cc3n2)cn1 [42-81B]
TNFα induced NFκB transcription activity % Inhibition [1]: 60.9 ± 2.9%
